Reference: PubChem BioAssay (NCI)
Where “and” joins values, the source holds several entries; their conditions need not be identical. Identical values can stand only once.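 In this assay, cells in 96-well plates receive the compound at five concentrations for 48 hours. Endpoints are linearly interpolated between the surrounding concentrations. The concentration for 50% growth inhibition is given as GI50. TGI denotes the concentration required for complete inhibition of growth.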

What was measured:
Assay in all cases: DTP human tumour cell line panel, 48 h
PC-3 prostate = test system: PC-3 prostate
HT29 colon = test system: HT29 colon
DU-145 prostate = test system: DU-145 prostate
SF-295 CNS = test system: SF-295 CNS
NCI-H522 lung = test system: NCI-H522 lung
NCI/ADR-RES ovarian = test system: NCI/ADR-RES ovarian
HCC-2998 colon = test system: HCC-2998 colon
NCI-H460 lung = test system: NCI-H460 lung
CAKI-1 renal = test system: CAKI-1 renal
SW-620 colon = test system: SW-620 colon

SMILES	TGI (PC-3 prostate)	TGI (HT29 colon)	TGI (DU-145 prostate)	TGI (SF-295 CNS)	TGI (NCI-H522 lung)	TGI (NCI/ADR-RES ovarian)	TGI (HCC-2998 colon)	TGI (NCI-H460 lung)	TGI (CAKI-1 renal)	TGI (SW-620 colon)	GI50 (HT29 colon)	GI50 (DU-145 prostate)	GI50 (SF-295 CNS)	GI50 (NCI-H522 lung)	GI50 (NCI/ADR-RES ovarian)	GI50 (HCC-2998 colon)	GI50 (NCI-H460 lung)	GI50 (CAKI-1 renal)	GI50 (SW-620 colon)
CCOC(=O)c1c(SC(=O)c2ccc(Cl)cc2)n(-c2ccccc2)c(=S)n(-c2ccccc2)c1=O	> 100 µM	> 100 µM	> 100 µM	> 100 µM	> 100 µM	> 100 µM	> 100 µM	> 100 µM	> 100 µM	> 100 µM									
COC(=O)CCCc1nc2ccccc2nc1N=Nc1ccccc1	> 100 µM	> 100 µM	> 100 µM	> 100 µM	68.5 µM	57.1 µM	> 100 µM	> 100 µM	> 100 µM	> 100 µM									
CC(C)=CC(=O)OC1C2C(C)=CC(=O)C(O)C2(C)C2C3(O)OCC24C(CC(=O)OC14)C(C)C3O (stereo unspecified)	0.0129 µM	0.0449 µM and 0.0146 µM and 0.137 µM	0.0173 µM and 0.141 µM	0.154 µM and 0.0672 µM and 0.0966 µM	0.011 µM and 0.0215 µM		0.0532 µM and 0.0278 µM and 0.0513 µM	0.0298 µM and 0.0334 µM			0.0302 µM	0.0225 µM	0.0126 µM	0.02 µM	6.65 µM and 2.24 µM	0.0229 µM	0.00788 µM	0.245 µM and 1.13 µM and 0.293 µM	0.0108 µM and 0.0265 µM
Oc1c(NCn2nc(CCCCCCCCc3nn(CNc4ccc5ccccc5c4O)c(=S)o3)oc2=S)ccc2ccccc12	> 100 µM	> 100 µM	> 100 µM	> 100 µM	> 100 µM	> 100 µM	> 100 µM	> 100 µM	> 100 µM	> 100 µM									
CC1(C)CC(=O)C2=C(C1)NC(=S)C(C#N)C2c1ccccc1 (stereo unspecified)	> 100 µM	> 100 µM	> 100 µM	> 100 µM	> 100 µM	> 100 µM	> 100 µM	> 100 µM	> 100 µM	> 100 µM									
Cc1cccc(NC(=S)Nc2cccc(Cl)c2)n1	> 100 µM	> 100 µM	> 100 µM	> 78.4 µM	> 100 µM	> 100 µM	> 100 µM	> 100 µM	> 100 µM	> 100 µM									
COc1ccc(N=C(C)C(C)=Nc2ccc(OC)cc2)cc1	> 100 µM	> 100 µM	> 100 µM	> 100 µM	> 100 µM	> 100 µM	82.6 µM	> 100 µM	> 100 µM	> 100 µM									
CC(=O)N1CCOC12N=NC(C)(C)O2 (stereo unspecified)	> 100 µM	> 100 µM	> 100 µM	> 100 µM	> 100 µM	> 100 µM	> 100 µM	> 100 µM	> 100 µM	> 100 µM									
Cc1cc2ccccc2n2c1nc1ccc(O)cc12	> 10 µM	> 10 µM	> 10 µM	> 10 µM	> 10 µM	> 10 µM	> 10 µM	> 10 µM	> 10 µM	> 10 µM									
O=[N+]([O-])/C(Cl)=C(\NCCO)C(Cl)=C(Cl)Cl	> 100 µM	> 100 µM	> 100 µM	> 100 µM	53 µM	> 77.9 µM	> 100 µM	> 100 µM	> 100 µM	77.4 µM									
C[C@@H]([C@H]1CC[C@@]2(C)[C@@H]3CC[C@@H]4C(=CC3=CC[C@]12C)CC[C@H](N(C)C)C4(C)C)N(C)C	> 100 µM	> 100 µM	> 100 µM	> 100 µM	> 100 µM	> 100 µM	> 100 µM	> 100 µM	> 100 µM	> 100 µM									
CC1=NN(c2ccccc2)C(=O)/C1=C\c1c(C)[nH]n(-c2ccccc2)c1=O	> 100 µM	> 100 µM	> 100 µM	> 100 µM	> 100 µM	> 100 µM	> 100 µM	> 100 µM	> 100 µM	> 100 µM									
CNCC(SC)c1ccc(O)c(O)c1 (stereo unspecified)	> 100 µM	99.5 µM	37.4 µM	> 100 µM	34.5 µM	> 100 µM	31.2 µM	33.2 µM	38 µM	46.9 µM									
COC1(C)CCC(OS(C)(=O)=O)CO1 (stereo unspecified)	> 100 µM	> 100 µM	> 100 µM	> 100 µM	> 100 µM	> 100 µM	> 100 µM	> 100 µM	> 100 µM	> 100 µM									
Cc1noc(-c2ccc(C(=O)O)[nH]2)c1Br	> 100 µM	> 100 µM	> 100 µM	> 100 µM	> 100 µM	> 100 µM	> 100 µM	> 100 µM	> 100 µM	> 100 µM									
C/C(CC(O)(C(F)(F)F)C(F)(F)F)=N\O	> 10 µM	> 10 µM	> 10 µM	> 10 µM	> 10 µM	> 10 µM	> 10 µM	> 10 µM	> 10 µM	> 10 µM									
